From PMC9538324 (Journal of medical virology, 2022)
Where two headings read alike, the source gives them in different places.

Columns and labels:
A549-ACE2 cells [1] = test system: A549-ACE2 cells
Vero cells = conditions: cited from earlier work
AXL = conditions: read-out: IC50 against AXL; cited from earlier work
SARS-CoV-2 [2] = conditions: Calu-3 cells; cited from earlier work
Delta PV = assay type: cell-based, SARS-CoV-2
VSV-G = assay type: cell-based, Vesicular stomatitis virus
Omicron PV = assay type: cell-based, SARS-CoV-2
[3] = test system: SARS-CoV-2 (USA-WA1 strain); test: microbe, parasite or virus in culture; assay type: cell-based; conditions: Severe acute respiratory syndrome coronavirus 2, A549-ACE2, read-out: EC50 against SARS-CoV-2
A549-ACE2 cells [4] = test: cells; conditions: Homo sapiens, A549-ACE2, read-out: EC50 for PLD induction
A549-ACE2 cells [5] = test: MTT cell viability assay; conditions: 0.63 μM
rVSV-EBOV = test: microbe, parasite or virus in culture; assay type: cell-based, Ebola virus; conditions: Zaire ebolavirus, A549-ACE2, read-out: EC50 against rVSV-EBOV
SARS-CoV-2 [6] = conditions: Huh7 cells; cited from earlier work
SARS-CoV-2 [7] = conditions: Vero cells, anti-NP antibody, Mount Sinai; cited from earlier work
SARS-CoV-2 [8] = conditions: A549-ACE2 cells; cited from earlier work
Wuhan PV = assay type: cell-based, SARS-CoV-2
SARS-CoV-2 [9] = conditions: Vero cells; cited from earlier work
SARS-CoV-2 [10] = conditions: A549-ACE2 cells, RT-PCR and plaque assay, Institut Pasteur; cited from earlier work
in vitro = conditions: human
A549-ACE2 cells [11] = conditions: A549-ACE2 infection assay
[12] = A549-ACE2 cells, compared with amodiaquine

Cc1ccc(NC(=O)c2ccc(CN3CCN(C)CC3)cc2)cc1Nc1nccc(-c2cccnc2)n1 [Imatinib, imatinib]
PLD induction (in words) (A549-ACE2 cells [1]): strong PLD inducers

CCc1nc(C(N)=O)c(Nc2ccc(N3CCC(N4CCN(C)CC4)CC3)c(OC)c2)nc1NC1CCOCC1 [Gilteritinib, gilteritinib]
CC50 (Vero cells): 37200 nM
IC50 (AXL): 41 nM
anti-SARS-CoV-2 activity (SARS-CoV-2 [2]): no detectable activity
Delta PV infection compared to VSV-G (Delta PV): small decrease
VSV-G infection relative to the level in imatinib- or nintedanib-treated cells (VSV-G): around 50%
PLD induction (in words) (A549-ACE2 cells [1]; [12]): induces a small amount of PLD
infection inhibition against Omicron PV compared to VSV-G (Omicron PV): significant infection inhibition
EC50 [3]: ~100 nM
EC50 (A549-ACE2 cells [4]): 390 nM
reduction of cell viability by MTT assay (A549-ACE2 cells [5]): approximately 30%
EC50 (rVSV-EBOV): 250 nM
EC50 (SARS-CoV-2 [6]): 200 nM
EC50 (SARS-CoV-2 [7]): ~800 nM
lowest concentration tested showing inhibition of virus replication (SARS-CoV-2 [8]): 0.5 µM
Wuhan PV infection compared to VSV-G (Wuhan PV): small decrease
EC50 (SARS-CoV-2 [9]): 6750 nM
EC50 (SARS-CoV-2 [10]): 60 to 120 nM
fold induction (in vitro): 15

COC(=O)c1ccc2c(c1)NC(=O)/C2=C(\Nc1ccc(N(C)C(=O)CN2CCN(C)CC2)cc1)c1ccccc1 [Nintedanib, nintedanib]
PLD induction (in words) (A549-ACE2 cells [1]; [12]): strong PLD inducers
cytotoxicity (in words) (A549-ACE2 cells [11]): little cytotoxicity
